Data from patent US20220071971A1, “MACROCYCLIC COMPOUNDS AND THEIR USE IN THE TREATMENT OF DISEASE” (NOVARTIS AG, priority 2018, published 2022).

Molecular target: T1, delF508-CFTR (Homo sapiens, UniProt P13569, DEL508-508)
T1 construct: expressed in transfected cells
Experiment: Measurement of delF508-CFTR-HRP surface expression in CFBE41o- cells
Assay type: cell-based
Conditions: for Emax: CFBE41o-, efficacy relative to reference compound 3-(6-(1-(2,2-difluorobenzo[d][1,3]dioxol-5-yl)cyclopropane-1-carboxamido)-3-methylpyridin-2-yl)benzoic acid, read-out: DelF508-CFTR-HRP Amax %; for EC50: HRP-tagged delF508-CFTR surface expression, CFBE41o- cells, 24 h with compound, 10-point curve, highest concentration 10 μM
How it was run: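 CFBE41o- cells stably expressing delF508-CFTR with HRP in the fourth extracellular loop, induced 48 h with 500 ng/mL doxycycline, then exposed to compound (10-point, 3-fold, top 10 μM, ≤0.5% DMSO) for 24 h at 37° C. Surface HRP read by luminescence with cell-impermeant substrate; EC50 by logistic fit, triplicates, efficacy relative to reference corrector.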

T1 sequence (P13569 with tags, fused parts or gaps DEL508-508): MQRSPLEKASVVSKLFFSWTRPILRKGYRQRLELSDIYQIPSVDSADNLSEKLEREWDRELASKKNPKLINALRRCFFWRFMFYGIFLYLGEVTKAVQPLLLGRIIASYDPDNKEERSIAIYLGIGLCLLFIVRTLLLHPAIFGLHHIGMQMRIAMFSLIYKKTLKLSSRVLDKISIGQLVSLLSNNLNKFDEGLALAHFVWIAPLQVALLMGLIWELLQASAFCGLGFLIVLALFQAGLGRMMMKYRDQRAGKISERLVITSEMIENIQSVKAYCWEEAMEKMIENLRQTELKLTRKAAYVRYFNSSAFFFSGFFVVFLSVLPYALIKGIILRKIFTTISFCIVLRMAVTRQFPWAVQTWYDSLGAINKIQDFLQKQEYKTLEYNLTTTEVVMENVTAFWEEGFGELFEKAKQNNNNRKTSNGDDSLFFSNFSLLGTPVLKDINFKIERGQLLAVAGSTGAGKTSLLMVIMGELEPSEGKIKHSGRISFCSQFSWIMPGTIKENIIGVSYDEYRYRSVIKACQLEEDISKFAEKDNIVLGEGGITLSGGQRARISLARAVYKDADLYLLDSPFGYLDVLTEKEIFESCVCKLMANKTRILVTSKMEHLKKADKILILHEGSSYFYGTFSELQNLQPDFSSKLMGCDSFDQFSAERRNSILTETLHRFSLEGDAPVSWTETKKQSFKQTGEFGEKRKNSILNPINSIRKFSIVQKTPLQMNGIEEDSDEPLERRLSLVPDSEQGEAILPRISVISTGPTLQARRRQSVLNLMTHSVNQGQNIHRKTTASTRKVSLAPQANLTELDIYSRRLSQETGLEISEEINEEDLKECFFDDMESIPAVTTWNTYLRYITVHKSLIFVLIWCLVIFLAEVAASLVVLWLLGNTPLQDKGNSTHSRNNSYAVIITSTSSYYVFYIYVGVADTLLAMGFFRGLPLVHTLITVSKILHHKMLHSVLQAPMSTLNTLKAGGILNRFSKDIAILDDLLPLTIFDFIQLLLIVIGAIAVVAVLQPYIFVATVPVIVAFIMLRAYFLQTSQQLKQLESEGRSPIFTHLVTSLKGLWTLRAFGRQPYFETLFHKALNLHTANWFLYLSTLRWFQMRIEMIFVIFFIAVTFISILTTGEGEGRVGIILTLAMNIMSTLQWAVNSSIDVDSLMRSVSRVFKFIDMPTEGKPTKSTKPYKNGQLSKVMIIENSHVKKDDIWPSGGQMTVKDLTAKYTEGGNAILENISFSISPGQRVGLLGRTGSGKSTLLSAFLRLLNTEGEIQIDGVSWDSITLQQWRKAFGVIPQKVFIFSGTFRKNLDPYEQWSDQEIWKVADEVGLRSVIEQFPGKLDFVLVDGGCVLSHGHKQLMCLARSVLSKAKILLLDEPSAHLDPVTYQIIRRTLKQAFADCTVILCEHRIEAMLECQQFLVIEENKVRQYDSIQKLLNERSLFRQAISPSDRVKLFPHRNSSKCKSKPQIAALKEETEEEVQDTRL

Emax [%] | EC50 [nM] | SMILES
30.7 | 3900 | O=S1(=O)Nc2ccc(C(F)(F)F)c(n2)-c2ccccc2CCCCNCCNc2cccc1n2 [Compound 131, 2^3-(trifluoromethyl)-4-thia-3,6,9-triaza-2,5(2,6)-dipyridina-1(1,2)-benzenacyclotridecaphane 4,4-dioxide]
 | 295 | CCOC(=O)C(C)(C)CN1CCCCCCc2ccccc2-c2nc(ccc2C(F)(F)F)NS(=O)(=O)c2cccc1n2 [Compound 32, ethyl 3-(4,4-dioxido-2^3-(trifluoromethyl)-4-thia-3,6-diaza-2,5(2,6)-dipyridina-1(1,2)-benzenacyclododecaphane-6-yl)-2,2-dimethylpropanoate]
386 | 977 | O=S1(=O)Nc2ccc(C(F)(F)F)c(n2)-c2cccnc2NCCCCCCNc2cccc1n2 [Compound 7, 2^3-(trifluoromethyl)-4-thia-3,6,13-triaza-1(3,2),2,5(2,6)-tripyridinacyclotridecaphane 4,4-dioxide]
 | 280 | O=C(O)CCCN1CCCCCCCc2ccccc2-c2nc(ccc2C(F)(F)F)NS(=O)(=O)c2cccc1n2 [Compound 65, 4-(4,4-dioxido-2^3-(trifluoromethyl)-4-thia-3,6-diaza-2,5(2,6)-dipyridina-1(1,2)-benzenacyclotridecaphane-6-yl)butanoic acid]
410 | 608 | O=C1C2CCCCC2C(=O)N1CCCN1CCCCCc2ccccc2-c2nc(ccc2C(F)(F)F)NS(=O)(=O)c2cccc1n2 (stereo not shown) [Compound 134, 2-(3-(4,4-dioxido-2^3-(trifluoromethyl)-4-thia-3,6-diaza-2,5(2,6)-dipyridina-1(1,2)-benzenacycloundecaphane-6-yl)propyl)hexahydro-1H-isoindole-1,3(2H)-dione]
792 | 431 | CC(C)(CN1CCCCCc2ccc(F)cc2-c2nc(ccc2C(F)(F)F)NS(=O)(=O)c2cccc1n2)C(=O)O [Compound 96, 3-(1^5-fluoro-4,4-dioxido-2^3-(trifluoromethyl)-4-thia-3,6-diaza-2,5(2,6)-dipyridina-1(1,2)-benzenacycloundecaphane-6-yl)-2,2-dimethylpropanoic acid]
601 | 393 | O=S1(=O)Nc2ccc(C(F)(F)F)c(n2)-c2ccccc2CCCCCN(CCN2CCOCC2)c2cccc1n2 [Compound 13, 6-(2-morpholinoethyl)-2^3-(trifluoromethyl)-4-thia-3,6-diaza-2,5(2,6)-dipyridina-1(1,2)-benzenacycloundecaphane 4,4-dioxide]
 | 1040 | O=C(O)CCN1CCCCCCc2ccccc2-c2nc(ccc2C(F)(F)F)NS(=O)(=O)c2cccc1n2 [Compound 84, 3-(4,4-dioxido-2^3-(trifluoromethyl)-4-thia-3,6-diaza-2,5(2,6)-dipyridina-1(1,2)-benzenacyclododecaphane-6-yl)propanoic acid]
287 | 1410 | Cc1ccnc2c1-c1nc(ccc1Cl)NS(=O)(=O)c1cccc(n1)NCCCCCN2 [Compound 106, 2^3-chloro-1^4-methyl-4-thia-3,6,12-triaza-1(3,2),2,5(2,6)-tripyridinacyclododecaphane 4,4-dioxide]
 | 1600 | O=C(O)CCCN1CCCCCc2ccccc2-c2nc(ccc2Cl)NS(=O)(=O)c2cccc1n2 [Compound 79, 4-(2^3-chloro-4,4-dioxido-4-thia-3,6-diaza-2,5(2,6)-dipyridina-1(1,2)-benzenacycloundecaphane-6-yl)butanoic acid]
29 | 2800 | O=S1(=O)Nc2ccc(C(F)(F)F)c(n2)-c2cccnc2NCCCNc2cccc1n2 [Compound 10, 2^3-(trifluoromethyl)-4-thia-3,6,10-triaza-1(3,2),2,5(2,6)-tripyridinacyclodecaphane 4,4-dioxide]
 | 293 | O=C(O)CCCCN1CCCCCCc2ccccc2-c2nc(ccc2C(F)(F)F)NS(=O)(=O)c2cccc1n2 [Compound 78, 5-(4,4-dioxido-2^3-(trifluoromethyl)-4-thia-3,6-diaza-2,5(2,6)-dipyridina-1(1,2)-benzenacyclododecaphane-6-yl)pentanoic acid]
 | 351 | O=C(O)CCN1CCCCCCCCc2ccccc2-c2nc(ccc2C(F)(F)F)NS(=O)(=O)c2cccc1n2 [Compound 69, 3-(4,4-dioxido-2^3-(trifluoromethyl)-4-thia-3,6-diaza-2,5(2,6)-dipyridina-1(1,2)-benzenacyclotetradecaphane-6-yl)propanoic acid]
666 | 603 | O=S1(=O)Nc2ccc(C(F)(F)F)c(n2)-c2cc(F)ccc2OCCCCN(CCCO)c2cccc1n2 [Compound 22, 1^5-fluoro-6-(3-hydroxypropyl)-2^3-(trifluoromethyl)-11-oxa-4-thia-3,6-diaza-2,5(2,6)-dipyridina-1(1,2)-benzenacycloundecaphane 4,4-dioxide]
259 | 2670 | NCCN1CCCCCc2ccccc2-c2nc(ccc2C(F)(F)F)NS(=O)(=O)c2cccc1n2 [Compound 132, 6-(2-aminoethyl)-2^3-(trifluoromethyl)-4-thia-3,6-diaza-2,5(2,6)-dipyridina-1(1,2)-benzenacycloundecaphane 4,4-dioxide]
119 | 3300 | O=S1(=O)Nc2ccc(C(F)(F)F)c(n2)-c2ccccc2CCC(O)CNc2cccc1n2 (stereo not shown) [Compound 33, 8-hydroxy-2^3-(trifluoromethyl)-4-thia-3,6-diaza-2,5(2,6)-dipyridina-1(1,2)-benzenacyclodecaphane 4,4-dioxide]
 | 668 | O=S1(=O)Nc2ccc(C(F)(F)F)c(n2)-c2cc(F)ccc2CCCCCN(CCCO)c2cccc1n2 [Compound 26, 1^5-fluoro-6-(3-hydroxypropyl)-2^3-(trifluoromethyl)-4-thia-3,6-diaza-2,5(2,6)-dipyridina-1(1,2)-benzenacycloundecaphane 4,4-dioxide]
941 | 179 | O=S1(=O)Nc2ccc(C(F)(F)F)c(n2)-c2ccccc2CCCCCCN(CCCO)c2cccc1n2 [Compound 21, 6-(3-hydroxypropyl)-2^3-(trifluoromethyl)-4-thia-3,6-diaza-2,5(2,6)-dipyridina-1(1,2)-benzenacyclododecaphane 4,4-dioxide]
862 | 913 | O=C(O)CCOCCN1CCCCCc2ccccc2-c2nc(ccc2C(F)(F)F)NS(=O)(=O)c2cccc1n2 [Compound 64, 3-(2-(4,4-dioxido-2^3-(trifluoromethyl)-4-thia-3,6-diaza-2,5(2,6)-dipyridina-1(1,2)-benzenacycloundecaphane-6-yl)ethoxy)propanoic acid]
 | 303 | O=S1(=O)Nc2ccc(C(F)(F)F)c(n2)-c2ccccc2CCCCCCN(CCCCO)c2cccc1n2 [Compound 16, 6-(4-hydroxybutyl)-2^3-(trifluoromethyl)-4-thia-3,6-diaza-2,5(2,6)-dipyridina-1(1,2)-benzenacyclododecaphane 4,4-dioxide]
93.6 | 3630 | O=C(O)CNCCN1CCCCCc2ccccc2-c2nc(ccc2C(F)(F)F)NS(=O)(=O)c2cccc1n2 [Compound 127, (2-(4,4-dioxido-2^3-(trifluoromethyl)-4-thia-3,6-diaza-2,5(2,6)-dipyridina-1(1,2)-benzenacycloundecaphane-6-yl)ethyl)glycine]
356 | 866 | O=S1(=O)Nc2ccc(C(F)(F)F)c(n2)-c2ccccc2CCCOCCNc2cccc1n2 [Compound 119, 2^3-(trifluoromethyl)-9-oxa-4-thia-3,6-diaza-2,5(2,6)-dipyridina-1(1,2)-benzenacyclododecaphane 4,4-dioxide]
843 | 373 | O=C(O)CCCCCN1CCCCCc2ccccc2-c2nc(ccc2C(F)(F)F)NS(=O)(=O)c2cccc1n2 [Compound 70, 6-(4,4-dioxido-2^3-(trifluoromethyl)-4-thia-3,6-diaza-2,5(2,6)-dipyridina-1(1,2)-benzenacycloundecaphane-6-yl)hexanoic acid]
949 | 1410 | O=C(O)CN1CCCCCCc2ccccc2-c2nc(ccc2C(F)(F)F)NS(=O)(=O)c2cccc1n2 [Compound 120, 2-(4,4-dioxido-2^3-(trifluoromethyl)-4-thia-3,6-diaza-2,5(2,6)-dipyridina-1(1,2)-benzenacyclododecaphane-6-yl)acetic acid]
652 | 844 | O=C(O)CCCCCN1CCCCCc2ccccc2-c2nc(ccc2Cl)NS(=O)(=O)c2cccc1n2 [Compound 82, 6-(2^3-chloro-4,4-dioxido-4-thia-3,6-diaza-2,5(2,6)-dipyridina-1(1,2)-benzenacycloundecaphane-6-yl)hexanoic acid]
 | 236 | O=S1(=O)Nc2ccc(C(F)(F)F)c(n2)-c2ccccc2CCCCCCN(CCCCCO)c2cccc1n2 [Compound 12, 6-(5-hydroxypentyl)-2^3-(trifluoromethyl)-4-thia-3,6-diaza-2,5(2,6)-dipyridina-1(1,2)-benzenacyclododecaphane 4,4-dioxide]
 | 492 | O=C(O)CCCCN1CCCCCc2ccccc2-c2nc(ccc2C(F)(F)F)NS(=O)(=O)c2cccc1n2 [Compound 77, 5-(4,4-dioxido-2^3-(trifluoromethyl)-4-thia-3,6-diaza-2,5(2,6)-dipyridina-1(1,2)-benzenacycloundecaphane-6-yl)pentanoic acid]

SMILES | Emax [%] | EC50 [nM]
O=C(O)CCC1CCCCc2ccccc2-c2nc(ccc2C(F)(F)F)NS(=O)(=O)c2cccc(n2)O1 (stereo not shown) [Compound 110, 3-(4,4-dioxido-2^3-(trifluoromethyl)-6-oxa-4-thia-3-aza-2,5(2,6)-dipyridina-1(1,2)-benzenacycloundecaphane-7-yl)propanoic acid] | 170 | 477
